Test results reported in patent publication US9145415B2, “Nitrogen-containing heterocyclic compound or salt thereof” (FUJIFILM Corporation, priority 2012, dated 2015).
Where two headings read alike, the source gives them in different places.

Key:
Molm-13 cells = test: Leukemia cell proliferation inhibition test (ATPlite), Molm-13; type: cell-based; conditions: Homo sapiens, read-out: MOLM13 cell proliferation inhibition effect
In short: (§1)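 Proliferation inhibition is quantified from total cellular ATP, measured by luciferase luminescence, after cells grow with compound for 72 hours. The GI50 is the concentration giving half the signal of the 0.1% DMSO control, fitted to a sigmoid curve from duplicate points.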

MV4-11 cells = test: Leukemia cell proliferation inhibition test (ATPlite), MV4-11; type: cell-based; conditions: Homo sapiens, read-out: MV4-11 cell proliferation inhibition effect
In short: as §1

[1] = molecular target: T1, human FLT3 protein (FLT3 (WT)) (Homo sapiens, UniProt P36888); test: FLT3 inhibition test (FLT3 enzyme inhibition, time-resolved fluorescence of substrate peptide phosphorylation); type: biochemical; conditions: read-out: FLT3 (WT) enzyme inhibition activity
T1 construct: human FLT3 protein (intracellular region, 564 to 993 aa); GST; purchased Carna Biosciences; host or cells: baculovirus expression system
T1 sequence (P36888 564-993): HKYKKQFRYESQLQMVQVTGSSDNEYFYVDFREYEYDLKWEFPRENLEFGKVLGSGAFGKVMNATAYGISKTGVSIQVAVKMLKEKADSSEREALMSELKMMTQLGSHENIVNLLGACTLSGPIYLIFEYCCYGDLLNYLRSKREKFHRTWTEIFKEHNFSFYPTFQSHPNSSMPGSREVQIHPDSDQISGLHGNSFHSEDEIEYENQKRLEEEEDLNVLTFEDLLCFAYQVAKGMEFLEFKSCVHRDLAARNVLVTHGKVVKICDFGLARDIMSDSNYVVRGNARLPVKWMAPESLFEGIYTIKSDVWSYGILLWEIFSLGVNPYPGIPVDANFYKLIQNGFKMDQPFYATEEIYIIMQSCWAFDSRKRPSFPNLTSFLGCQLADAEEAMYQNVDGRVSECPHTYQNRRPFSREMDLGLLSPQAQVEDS
In short: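 Wild-type human FLT3 (1.2 μg) pre-incubated with compound 15 min at 25° C in 100 mM HEPES pH 7.5, 10 mM MgCl2, 25 mM NaCl, 1 mM DTT. Reaction started with substrate peptide and ATP (final 50 μM), run 30 min at 25° C; phosphorylation read by time-resolved fluorescence.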

[2] = MOLM-13, 72 h, Molm-13, 72 hours culture, ATPlite, GI50 per method
[3] = MV4-11, 72 h, MV4-11, 72 hours culture, ATPlite, GI50 per method
[4] = GST-fused human FLT3 (564 to 993 aa), ATP 50 μM

Row | SMILES | IC50 (Molm-13 cells; [2]) [nM] | IC50 (MV4-11 cells; [3]) [nM] | IC50 [1, 4] [nM] | IC50 (Molm-13 cells; MOLM-13, MOLM13 cell) [nM] | IC50 (MV4-11 cells; MV4-11, MV4-11 cell) [nM] | IC50 ([1]; FLT3 (WT)) [nM]
1 | CCCNc1nc(Nc2cccc(F)c2)ncc1C#C[C@@H]1CCC[C@H](NC(=O)[C@H](C)N(C)C(=O)/C=C/CN(C)C)C1 [Compound 13-1, (E)-4-(dimethylamino)-N—((S)-1-(((1S,3R)-3-((2-((3-fluorophenyl)amino)-4-(propylamino)pyrimidin-5-yl)ethynyl)cyclohexyl)amino)-1-oxopropan-2-yl)-N-methyl-2-butenamide] | < 10 | < 10 | < 10 | – | – | –
2 | CCCNc1nc(Nc2ccc(C#N)cc2)ncc1/C=C\CNC(=O)CCCNC(=O)/C=C/CN(C)C [Compound 7-96] | > 1000 | 100 to 1000 | 10 to 100 | – | – | –
3 | CCCNc1nc(Nc2cccc(F)c2)ncc1-c1nc2ccc(NC(=O)[C@H](C)N(C)C(=O)/C=C/CN(C)C)cc2o1 [Compound 6-23, (S,E)-4-(dimethylamino)-N-(1-((2-(2-((3-fluorophenyl)amino)-4-(propylamino)pyrimidin-5-yl)benzo[d]oxazol-6-yl)amino)-1-oxopropan-2-yl)-N-methyl-2-butenamide] | 100 to 1000 | 100 to 1000 | 10 to 100 | – | – | –
4 | CCCNc1nc(Nc2cc(C)no2)ncc1C#CCCCNC(=O)[C@H](C)N(C)C(=O)/C=C/CN(C)C [Compound 7-78] | 10 to 100 | < 10 | < 10 | – | – | –
5 | CCCNc1nc(Nc2ccc(-n3cccn3)cc2)ncc1C#CCCCNC(=O)[C@H](C)N(C)C(=O)/C=C/CN(C)C [Compound 22-15] | – | – | – | 10 to 100 | 10 to 100 | < 10
6 | CCCNc1nc(Nc2ccc3occc3c2)ncc1C#CCCCNC(=O)[C@H](C)N(C)C(=O)/C=C/CN(C)C [Compound 21-34] | – | – | – | < 10 | < 10 | < 10
7 | CCCNc1nc(Nc2cccc(F)c2)ncc1C#CC(C)(C)CCNC(=O)[C@H](C)N(C)C(=O)/C=C/CN(C)C [Compound 7-28] | < 10 | < 10 | < 10 | – | – | –
8 | CCCNc1nc(Nc2ccc(-n3ccnn3)cc2)ncc1C#CCCCNC(=O)[C@H](C)N(C)C(=O)/C=C/CN(C)C [Compound 22-17] | – | – | – | < 10 | < 10 | < 10
9 | CCCNc1nc(Nc2ccc3nc(C)ccc3c2)ncc1C#CCCCNC(=O)[C@H](C)N(C)C(=O)/C=C/CN(C)C [Compound 22-5] | – | – | – | 10 to 100 | 100 to 1000 | 10 to 100
10 | CCCNc1nc(Nc2ccnc(F)c2)ncc1C#C[C@@H]1CCC[C@H](NC(=O)[C@H](C)N(C)C(=O)/C=C/CN(C)C)C1 [Compound 14-1, (E)-4-(dimethylamino)-N—((S)-1-(((1S,3R)-3-((2-((2-fluoropyridin-4-yl)amino)-4-(propylamino)pyrimidin-5-yl)ethynyl)cyclohexyl)amino)-1-oxopropan-2-yl)-N-methyl-2-butenamido] | < 10 | < 10 | < 10 | – | – | –
11 | C=CC(=O)Nc1cccc(CNC(=O)c2cnc(NCCc3ccncc3)nc2NCCC)c1 [Compound 2-26] | 100 to 1000 | 100 to 1000 | 10 to 100 | – | – | –
12 | CCCNc1nc(NC(=O)Nc2ccncc2)ncc1C(=O)NCCCNC(=O)CN(C)C(=O)/C=C/CN(C)C [Compound 6-13] | 100 to 1000 | 100 to 1000 | < 10 | – | – | –
13 | CCCNc1nc(Nc2ccnc(OC)c2)ncc1C#C[C@H]1C[C@@H](NC(=O)[C@H](C)N(C)C(=O)/C=C/CN(C)C)C1 [Compound 14-6, (E)-4-(Dimethylamino)-N—((S)-1-(((1S,3R)-3-((2-((2-methoxypyridin-4-yl)amino)-4-(propylamino)pyrimidin-5-yl)ethynyl)cyclobutyl)amino)-1-oxopropan-2-yl)-N-methyl-2-butenamide] | < 10 | < 10 | < 10 | – | – | –
14 | CNc1nc(Nc2ccc(F)cc2)ncc1C#CCCCNC(=O)[C@H](C)N(C)C(=O)/C=C/CN(C)C [Compound 21-51] | – | – | – | < 10 | < 10 | < 10
15 | CNc1nc(Nc2cccc(F)c2)ncc1C#CCCCNC(=O)[C@@H]1C[C@H](OC)CN1C(=O)/C=C/CN(C)C [Compound 7-73, (2S,4S)-1-((E)-4-(Dimethylamino)-2-butenoyl)-N-(5-(2-((3-fluorophenyl)amino)-4-(methylamino)pyrimidin-5-yl)-4-pentyn-1-yl)-4-methoxypyrrolidine-2-carboxamide] | < 10 | < 10 | < 10 | – | – | –
16 | C=CC(=O)Nc1cccc(NC(=O)c2cnc(NCCc3ccncc3)nc2NCCC)c1 [Compound 2-25] | 100 to 1000 | 100 to 1000 | 10 to 100 | – | – | –
17 | CCCNc1nc(Nc2ccc(C(N)=O)cc2)ncc1C(=O)NC1CCCC(NC(=O)CN(C)C(=O)/C=C/CN(C)C)C1 (stereo not drawn) [Compound 3-4, (E)-2-((4-Carbamoylphenyl)amino)-N-(3-(2-(4-(dimethylamino)-N-methyl-2-butenamido)actamido)cyclohexyl)-4-(propylamino)pyrimidine-5-carboxamide] | < 10 | < 10 | < 10 | – | – | –
18 | CCCN(CCC)c1nc(Nc2ccc(C#N)cc2)ncc1C#CCCCNC(=O)[C@H](C)N(C)C(=O)/C=C/CN(C)C [Compound 10-16] | < 10 | < 10 | < 10 | – | – | –
19 | CCCNc1nc(Nc2ccc(-n3nccn3)cc2)ncc1C#CCCCNC(=O)[C@H](C)N(C)C(=O)/C=C/CN(C)C [Compound 22-16] | – | – | – | 10 to 100 | 10 to 100 | 10 to 100
20 | C[C@@H](C(=O)N[C@H]1C[C@@H](C#Cc2cnc(Nc3ccc(C#N)cc3)nc2NC2CC2)C1)N(C)C(=O)/C=C/CN(C)C (relative stereo) [Compound 15-8, (E)-N—((S)-1-(((1S*,3R*)-3-((2-((4-Cyanophenyl)amino)-4-(cyclopropylamino)pyrimidin-5-yl)ethynyl)cyclobutyl)amino)-1-oxopropan-2-yl)-4-(dimethylamino)-N-methyl-2-butenamide] | < 10 | < 10 | < 10 | – | – | –
21 | CCCNc1nc(NCCc2ccncc2)ncc1C(=O)Nc1cccc(NC(=O)C(C)(C)NC(=O)/C=C/CN(C)C)c1 [Compound 2-11] | 10 to 100 | 10 to 100 | < 10 | – | – | –
22 | CCCNc1nc(Nc2ccc(OC(F)(F)F)cc2)ncc1C#CCCCNC(=O)[C@H](C)N(C)C(=O)/C=C/CN(C)C [Compound 12-6] | 100 to 1000 | 10 to 100 | 10 to 100 | – | – | –
23 | CNc1nc(Nc2ccc3[nH]ncc3c2)ncc1C#CCCCNC(=O)[C@H](C)N(C)C(=O)/C=C/CN(C)C [Compound 10-60] | < 10 | < 10 | < 10 | – | – | –
24 | CCCNc1nc(NCC)ncc1C#CCCCNC(=O)[C@H](C)N(C)C(=O)/C=C/CN(C)C [Compound 11-3] | 100 to 1000 | 100 to 1000 | 10 to 100 | – | – | –
25 | CCCNc1nc(NCCc2ccncc2)ncc1C(=O)Nc1ccc(C)c(NC(=O)CNC(=O)/C=C/CN(C)C)c1 [Compound 1-8] | 10 to 100 | < 10 | < 10 | – | – | –
26 | CCCN(C)c1nc(Nc2cccc(F)c2)ncc1C#CCCCNC(=O)[C@H](C)N(C)C(=O)/C=C/CN(C)C [Compound 9-5] | 10 to 100 | 10 to 100 | < 10 | – | – | –
27 | CNc1nc(Nc2cccc(C#N)c2)ncc1C#C[C@H]1C[C@@H](NC(=O)[C@H](C)N(C)C(=O)/C=C/CN(C)C)C1 [Compound 13-15, (E)-N—((S)-1-(((1S,3R)-3-((2-((3-Cyanophenyl)amino)-4-(methylamino)pyrimidin-5-yl)ethynyl)cyclobutyl)amino)-1-oxopropan-2-yl)-4-(dimethylamino)-N-methyl-2-butenamide] | < 10 | < 10 | < 10 | – | – | –
28 | COc1nc(Nc2ccc(C#N)cc2)ncc1C#C[C@@H]1CCC[C@H](NC(=O)[C@H](C)N(C)C(=O)/C=C/CN(C)C)C1 [Compound 15-1, (E)-N—((S)-1-(((1S,3R)-3-((2-((4-cyanophenyl)amino)-4-methoxypyrimidin-5-yl)ethynyl)cyclohexyl)amino)-1-oxopropan-2-yl)-4-(dimethylamino)-N-methyl-2-butenamide] | < 10 | < 10 | < 10 | – | – | –
29 | CCCNc1nc(NCCc2ccncc2)ncc1C(=O)NCCC(CC)NC(=O)CNC(=O)/C=C/CN(C)C (stereo not drawn) [Compound 1-11] | 10 to 100 | 10 to 100 | < 10 | – | – | –
30 | CCCNc1nc(NCCc2ccncc2)ncc1C(=O)NCCC(CC)NC(=O)CN(C)C(=O)/C=C/CN(C)C (stereo not drawn) [Compound 1-12] | 10 to 100 | < 10 | < 10 | – | – | –
